Results published in the supplement of paper PMC10627819.

Assays:
[1] = test system: S. pneumoniae D39V; assay: fitness (endpoint OD595 vs no drug) (fraction); higher = more growth
Summary of the method: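 Background-subtracted growth curves were the basis for fitness, taken as the optical density at entry into stationary phase over the robust mean of no-drug control wells. A cap of 1 was applied. The curves came from OD595 readings every 30 min for 14 h at 37 °C, in 384-well plates seeded at OD595 0.01 with 30 µl, or 55 µl for S. pneumoniae.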

[2] = test system: B. subtilis 168; assay: Bliss interaction score (quartile over a dose matrix) (fitness difference); higher = more antagonism (negative = synergy)
Summary of the method: (§1)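 Quartiles summarise the Bliss score over technical, biological and donor/recipient replicates, where the score is observed minus expected fitness under a product model. Expected fitness uses single-drug values inferred from combination data. Fitness is OD595 at entry into stationary phase over the plate's robust no-drug mean, capped at 1.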

[3] = test system: S. aureus Newman; assay: as above
Summary of the method: as §1

[4] = test system: S. aureus DSM 20231; assay: as above
Summary of the method: as §1

[5] = test system: S. pneumoniae D39V; assay: as above
Summary of the method: as §1
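For Bliss interaction score (quartile over a dose matrix) in this document: first quartile when negative (synergy) and third quartile when positive (antagonism).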

C[C@@H](O)[C@H]1C(=O)N2C(C(=O)O)=C(SCCNC=N)C[C@H]12 [Imipenem] + Clc1ccc(COC(Cn2ccnc2)c2ccc(Cl)cc2Cl)c(Cl)c1 [Miconazole]
fitness, [1]
Settings | first compound 0.005 µg/mL | first compound 0.0065 µg/mL | first compound 0.01 µg/mL | first compound 0.013 µg/mL | first compound 0.02 µg/mL | first compound 0.026 µg/mL
partner 1.073 µg/mL | ≥ 1 | – | ≥ 1 | – | ≥ 1 | –
partner 1.25 µg/mL | – | 0.877 | – | 0.869 | – | 0.72
partner 2.145 µg/mL | ≥ 1 | – | 0.998 | – | 0.99 | –
partner 2.5 µg/mL | – | 0.892 | – | 0.907 | – | 0.761
partner 4.29 µg/mL | 0.955 | – | 0.95 | – | 0.882 | –
partner 5 µg/mL | – | 0.908 | – | 0.947 | – | 0.886

Settings | Bliss interaction score
[2] | -0.0815
[3] | -0.0307
[4] | 0.0412
[5] | 0.0759

C[C@@H](O)[C@H]1C(=O)N2C(C(=O)O)=C(SCCNC=N)C[C@H]12 [Imipenem] + Cn1nnc(-c2ccc(-c3ccc(N4C[C@H](CO)OC4=O)cc3F)cn2)n1 [Tedizolid]
fitness, [1]
Settings | first compound 0.005 µg/mL | first compound 0.0065 µg/mL | first compound 0.01 µg/mL | first compound 0.013 µg/mL | first compound 0.02 µg/mL | first compound 0.026 µg/mL
partner 0.03125 µg/mL | 0.922 | – | 0.917 | – | 0.913 | –
partner 0.0625 µg/mL | 0.958 | – | 0.949 | – | 0.993 | –
partner 0.125 µg/mL | 0.829 | 0.68 | 0.795 | 0.758 | 0.82 | 0.553
partner 0.25 µg/mL | – | 0.553 | – | 0.607 | – | 0.578
partner 0.5 µg/mL | – | 0.125 | – | 0.161 | – | 0.151

Settings | Bliss interaction score
[2] | 0.21
[3] | 0.0821
[4] | -0.0424
[5] | -0.17

C[C@@H](O)[C@H]1C(=O)N2C(C(=O)O)=C(SCCNC=N)C[C@H]12 [Imipenem] + O=C1CN(/N=C/c2ccc([N+](=O)[O-])o2)C(=O)N1 [Nitrofurantoin]
fitness, [1]
Settings | first compound 0.005 µg/mL | first compound 0.0065 µg/mL | first compound 0.01 µg/mL | first compound 0.013 µg/mL | first compound 0.02 µg/mL | first compound 0.026 µg/mL
partner 1.285 µg/mL | 0.947 | – | 0.967 | – | 0.97 | –
partner 2 µg/mL | – | 0.931 | – | 0.882 | – | 0.842
partner 2.57 µg/mL | 0.946 | – | 0.944 | – | 0.955 | –
partner 4 µg/mL | – | 0.912 | – | 0.914 | – | 0.804
partner 8 µg/mL | – | 0.763 | – | 0.728 | – | 0.72

[1], partner 5.14 µg/mL, one replicate
Settings | fitness
first compound 0.005 µg/mL | 0.887
first compound 0.01 µg/mL | 0.941
first compound 0.02 µg/mL | 0.928

Settings | Bliss interaction score
[2] | 0.0986
[3] | -0.0377
[4] | 0.0253
[5] | 0.049

CCC[C@@H]1C[C@@H](C(=O)N[C@@H]([C@H]2O[C@H](SC)[C@H](O)[C@@H](O)[C@H]2O)[C@@H](C)O)N(C)C1 [Lincomycin] + C/C(=C\C(=O)OCCCCCCCCC(=O)O)C[C@@H]1OC[C@H](C[C@@H]2O[C@H]2[C@@H](C)[C@H](C)O)[C@@H](O)[C@H]1O [Pseudomonic acid]
fitness, [1]
Settings | first compound 0.2 µg/mL | first compound 0.215 µg/mL | first compound 0.4 µg/mL | first compound 0.43 µg/mL | first compound 0.8 µg/mL | first compound 0.86 µg/mL
partner 0.03 µg/mL | 0.649 | 0.828 | – | 0.633 | 0.121 | 0.177
partner 0.06 µg/mL | – | – | 0.206 | – | 0.0533 | 0.142
partner 0.12 µg/mL | 0.179 | – | 0.156 | – | 0.0889 | 0.12

Settings | Bliss interaction score
[2] | -0.0308
[3] | 0.031
[4] | 0.0155
[5] | -0.269

CCC[C@@H]1C[C@@H](C(=O)N[C@@H]([C@H]2O[C@H](SC)[C@H](O)[C@@H](O)[C@H]2O)[C@@H](C)O)N(C)C1 [Lincomycin] + CO[C@H]1/C=C/O[C@@]2(C)Oc3c(C)c(O)c4c(O)c(c(/C=N/N5CCN(C)CC5)c(O)c4c3C2=O)NC(=O)/C(C)=C\C=C\[C@H](C)[C@H](O)[C@@H](C)[C@@H](O)[C@@H](C)[C@H](OC(C)=O)[C@@H]1C [Rifampicin]
fitness, [1], one replicate
Settings | first compound 0.2 µg/mL | first compound 0.4 µg/mL | first compound 0.8 µg/mL
partner 0.025 µg/mL | 0.137 | 0.0822 | 0.0813
partner 0.2 µg/mL | 0 | 0 | 0

fitness, [1]
Settings | first compound 0.2 µg/mL | first compound 0.215 µg/mL | first compound 0.4 µg/mL | first compound 0.43 µg/mL | first compound 0.8 µg/mL | first compound 0.86 µg/mL
partner 0.05 µg/mL | – | – | 0.0846 | – | 0.0947 | 0.185
partner 0.1 µg/mL | 0.076 | – | 0.0641 | – | 0.0864 | 0.147
partner 0.2 µg/mL | – | 0.26 | – | 0.221 | – | 0.131

Settings | Bliss interaction score
[2] | -0.0988
[3] | 0.0333
[4] | -0.0747
[5] | -0.136

CCC[C@@H]1C[C@@H](C(=O)N[C@@H]([C@H]2O[C@H](SC)[C@H](O)[C@@H](O)[C@H]2O)[C@@H](C)O)N(C)C1 [Lincomycin] + Clc1ccc(COC(Cn2ccnc2)c2ccc(Cl)cc2Cl)c(Cl)c1 [Miconazole]
[1]
Settings | fitness
first compound 0.2 µg/mL, partner 1.073 µg/mL | 0.824
first compound 0.2 µg/mL, partner 2.145 µg/mL | 0.874
first compound 0.2 µg/mL, partner 4.29 µg/mL | 0.807
first compound 0.215 µg/mL, partner 1.25 µg/mL | 0.808
first compound 0.215 µg/mL, partner 2.5 µg/mL | 0.782
first compound 0.215 µg/mL, partner 5 µg/mL | 0.81
first compound 0.4 µg/mL, partner 1.073 µg/mL | 0.716
first compound 0.4 µg/mL, partner 2.145 µg/mL | 0.683
first compound 0.4 µg/mL, partner 4.29 µg/mL | 0.544
first compound 0.43 µg/mL, partner 1.25 µg/mL | 0.71
first compound 0.43 µg/mL, partner 2.5 µg/mL | 0.682
first compound 0.43 µg/mL, partner 5 µg/mL | 0.689
first compound 0.8 µg/mL, partner 4.29 µg/mL | 0.275
first compound 0.86 µg/mL, partner 1.25 µg/mL | 0.264
first compound 0.86 µg/mL, partner 2.5 µg/mL | 0.308
first compound 0.86 µg/mL, partner 5 µg/mL | 0.377

Settings | Bliss interaction score
[2] | 0.0378
[3] | 0.0538
[4] | 0.0484
[5] | 0.117
